Ends that are not written are not given here. Peptide text beside a SMILES is read from it.
Columns and labels:
[1] = MTT cytotoxicity on normal human skin keratinocytes; conditions: normal human epidermal keratinocytes
Experimental: (§1) To make sure the peptides are not cytotoxic to the cells, normal human epidermal keratinocytes were seeded to a 96-well plate. The plate was incubated at 37° C. in the presence of 5% CO2 to allow the cells to grow to >95% confluent. Peptides are diluted into stock solutions at concentrations of 50, 100, 200, and 500 μg/ml. The cell culture media are replaced with fresh media containing peptides at various concentrations then incubated at 37° C. and 5% CO2 for 24 hr. At the end of treatment the cell viability was measured using MTT assay kit purchased from ATCC (Manassas Va.).

[2] = in vitro; conditions: human, normal human epidermal keratinocytes
Experimental: as §1

[3] = test system: wound repair in a murine model; conditions: cited from earlier work

Compound	CC50 at 24 h [1]	further results
CC[C@H](C)[C@H](NC(=O)[C@@H](N)CCCCN)C(=O)N[C@@H](CCC(=O)O)C(=O)N[C@@H](CCCCN)C(=O)O [HB2232, KIEK] (H-KIEK-OH)	> 500 µg/mL	
CSCC[C@H](NC(=O)[C@H](CCCCN)NC(=O)[C@@H](N)CCC(=O)O)C(=O)NCC(=O)O [HB2234, EKMG] (H-EKMG-OH)	> 500 µg/mL	
CSCC[C@H](N)C(=O)NCC(=O)N[C@@H](CCCNC(=N)N)C(=O)N[C@@H](CC(N)=O)C(=O)O [HB2235, MGRN] (H-MGRN-OH)	> 500 µg/mL	
CSCC[C@H](NC(=O)[C@@H](N)CCCCN)C(=O)NCC(=O)O [HB2268, KMG] (H-Lys-Met-Gly-OH)		CC50 at 24 h [2]: > 500 µg/mL
N=C(N)NCCC[C@H](NC(=O)CN)C(=O)N[C@@H](CC(N)=O)C(=O)O [HB2269, GRN] (H-Gly-Arg-Asn-OH)	> 500 µg/mL	
EKMGR [HB2263, EKMGR]	> 500 µg/mL	
EKMGRN [HB2265, EKMGRN]	> 500 µg/mL	
GRNIRN [HB1062, GRNIRN]	> 500 µg/mL	
KMGRN [HB2262, KMGRN]	> 500 µg/mL	
MPKEKVFLKIEKMGRNIRN (Peptide HB107) [non-antimicrobial host defense peptide derived from cecropin B]		Benefit in wound repair ([3]; murine model, compared with growth factor rhPDGF): indistinguishable from the wound treated with growth factor rhPDGF; Epidermal hyperplasia (histological analysis of treated wounds) ([3]; murine wounds): increased
